Measured values from patent US20220375563A1, “METHOD AND APPARATUS FOR INDIVIDUALIZED ADMINISTRATION OF MEDICAMENTS FOR ENHANCED SAFE DELIVERY WITHIN A THERAPEUTIC RANGE” (UNIVERSITY OF MARYLAND, BALTIMORE, priority 2019, published 2022).
Where two headings read alike, the source gives them in different places.

Tests used:
[1] = cited from earlier work; for Concentration range: Table 1 anti-epileptics, * uncertain reference range, ** well defined toxic range
[2] = Therapeutic index (ratio between upper/lower bounds of therapeutic window); assay type: in vivo
Experimental: In various example embodiments, dosing is determined using some or all the steps of method 300 for medicaments listed in the following tables. For each medicament listed, a concentration window W or therapeutic index is listed in a third column. The therapeutic index (TI, also referred to as therapeutic ratio) is a quantitative measurement of the relative safety of a drug. It is a comparison of the amount of a therapeutic agent that causes the therapeutic effect to the amount that causes toxicity. As proposed herein, a cost function g(y) is based, at least in part, on a value in this third column. The Koopman Expectation is used in Equation 11 or Equation 12 with a quadrature procedure to deduce an optimum range or subset of the dosing range listed in the second column.

[3] = Table 1 anti-epileptics; printed in place of a dose range; cited from earlier work

Row | SMILES | Concentration range [1] | Therapeutic index ([2]; Table 7 antiepileptics) | Therapeutic window ([1]; Table 7 antiepileptics) [mg/L] | further results
1 | CN1C(=O)CC(=O)N(c2ccccc2)c2cc(Cl)ccc21 [Clobazam] | (0.03-0.3 mg/L) |  |  | 
2 | CCCC(CCC)C(=O)O [Valproic acid] | (50-100 mg/L) | 2 | 50 to 100 | Dose range: PK note [3]: (non-linear PK)
3 | CC[C@@H](C(N)=O)N1CCCC1=O [Levetiracetam] | (12-46 mg/L) |  |  | 
4 | NS(=O)(=O)Cc1noc2ccccc12 [Zonisamide] | (10-40 mg/L)** | 4 | 10 to 40 | 
5 | O=C1NC(=O)C(c2ccccc2)(c2ccccc2)N1 [Phenytoin] | (10-20 mg/L) | 2 | 10 to 20 | Dose range: PK note [3]: (non-linear PK)
6 | CCC1(c2ccccc2)C(=O)NC(=O)NC1=O [Phenobarbital] | (10-40 mg/L) |  |  | 
7 | O=C1CN=C(c2ccccc2Cl)c2cc([N+](=O)[O-])ccc2N1 [Clonazepam] | (0.02-0.07 mg/L) |  |  | 
8 | C=C[C@H]1C[N@@]2CC[C@H]1C[C@@H]2[C@@H](O)c1ccnc2ccc(OC)cc12 [Quinidine] |  |  |  | Therapeutic index ([2]; Table 6 antiarrhythmics): 2.5; Concentration/biomarker range ([1]; Table 3 antiarrhythmics): (2-5 mg/L); Therapeutic window ([1]; Table 6 antiarrhythmics): 2 to 5 mg/L
9 | C=CC[C@@H]1/C=C(\C)C[C@H](C)C[C@H](OC)[C@H]2O[C@@](O)(C(=O)C(=O)N3CCCC[C@H]3C(=O)O[C@H](/C(C)=C/[C@@H]3CC[C@@H](O)[C@H](OC)C3)[C@H](C)[C@@H](O)CC1=O)[C@H](C)C[C@@H]2OC [Tacrolimus] |  |  |  | Small change in concentration may lead to failure/serious AE (concentration range) ([1]; Table 4 immunosuppressants): (5-15 ng/mL)
10 | Nc1nnc(-c2cccc(Cl)c2Cl)c(N)n1 [Lamotrigine] | (3-14 mg/L) | 4.7 | 3 to 14 | 
11 | COc1c(C)c2c(c(O)c1C/C=C(\C)CCC(=O)O)C(=O)OC2 [Mycophenolate] |  |  |  | Small change in concentration may lead to failure/serious AE (exposure range) ([1]; Table 4 immunosuppressants, not in label): (30-60 mg*h/L
12 | NC(=O)OCC(COC(N)=O)c1ccccc1 [Felbamate] | (30-60 mg/L)* | 2 | 30 to 60 | 
13 | C[C@H]1O[C@@H](O[C@H]2[C@@H](O)C[C@H](O[C@H]3[C@@H](O)C[C@H](O[C@H]4CC[C@@]5(C)[C@H](CC[C@@H]6[C@@H]5C[C@@H](O)[C@]5(C)[C@@H](C7=CC(=O)OC7)CC[C@]65O)C4)O[C@@H]3C)O[C@@H]2C)C[C@H](O)[C@@H]1O [Digoxin] |  |  |  | Concentration/biomarker range ([1]; Table 3 antiarrhythmics, AF): (0.8-2: AF; Concentration/biomarker range ([1]; Table 3 antiarrhythmics, Cl): 0.5-1: Cl)
14 | CCC1(C)CC(=O)NC1=O (stereo not shown) [Ethosuximide] | (40-100 mg/L) |  |  | 
15 | Cc1ccsc1C(=CCCN1CCC[C@@H](C(=O)O)C1)c1sccc1C [Tiagabine] | (0.02-0.2 mg/L)* | 10 | 0.02 to 0.2 | 
16 | CCC1(c2ccccc2)C(=O)NCNC1=O [Primidone] | (5-10 mg/L) |  |  | 
17 | CC1(C)O[C@@H]2[C@@H](CO[C@@]3(COS(N)(=O)=O)OC(C)(C)O[C@@H]23)O1 [Topiramate] | (5-20 mg/L) | 4 | 5 to 20 | 
18 | [H]/N=C(/N)c1ccc(NCc2nc3cc(C(=O)N(CCC(=O)O)c4ccccn4)ccc3n2C)cc1 [Dabigatran] |  |  |  | Therapeutic index ([2]; Table 5 anticoagulants): 1.7; Concentration/biomarker range ([1]; Table 2 anticoagulants): (60-200 mg/L or
19 | CC1CNc2c(cccc2S(=O)(=O)N[C@@H](CCCNC(=N)N)C(=O)N2CC[C@@H](C)C[C@@H]2C(=O)O)C1 (stereo partly shown) [Argatroban] |  |  |  | Therapeutic index ([2]; Table 5 anticoagulants): 1.7
20 | CC(=O)CC(c1ccccc1)c1c(O)c2ccccc2oc1=O (stereo not shown) [Warfarin] |  |  |  | Therapeutic index ([2]; Table 5 anticoagulants): 1.5
21 | NC(=O)N1c2ccccc2C=Cc2ccccc21 [Carbamazepine] |  | 3 | 4 to 12 | 
22 | CO[C@H]1C[C@@H]2CC[C@@H](C)[C@@](O)(O2)C(=O)C(=O)N2CCCC[C@H]2C(=O)O[C@H]([C@H](C)C[C@@H]2CC[C@@H](O)[C@H](OC)C2)CC(=O)[C@H](C)/C=C(\C)[C@@H](O)[C@@H](OC)C(=O)[C@H](C)C[C@H](C)/C=C/C=C/C=C/1C [Sirolimus] |  |  |  | Small change in concentration may lead to failure/serious AE (concentration range) ([1]; Table 4 immunosuppressants): (12-20 ng/mL)
23 | NCC1(CC(=O)O)CCCCC1 [Gabapentin] | (2-20 mg/L) |  |  | 
24 | CO[C@H]1C[C@@H]2CC[C@@H](C)[C@@](O)(O2)C(=O)C(=O)N2CCCC[C@H]2C(=O)O[C@H]([C@H](C)C[C@@H]2CC[C@@H](OCCO)[C@H](OC)C2)CC(=O)[C@H](C)/C=C(\C)[C@@H](O)[C@@H](OC)C(=O)[C@H](C)C[C@H](C)/C=C/C=C/C=C/1C [Everolimus] |  |  |  | Small change in concentration may lead to failure/serious AE (concentration range) ([1]; Table 4 immunosuppressants): (3-8 ng/mL)
25 | C=CC(N)CCC(=O)O (stereo not shown) [Vigabatrin] | (0.8-36 mg/L) |  |  | 
